In series [1] the test system is glutamic acid at neuromuscular junctions of crayfish (opener muscles of the first walking legs). Briefly: Blocking effects against glutamic acid at neuromuscular junctions of crayfish (L-glutamic acid-induced depolarization). To be noted: 5 min; suppression rate of depolarization by L-glutamic acid (10^-4 M); 5-minute pretreatment with test compound 2×10^-4 M. In kind it is cell-based.
Source text: The opener muscles of the first walking legs of crayfish were used as experimental materials. The neuromuscular sample was held in a bath in which a physiological solution [composition (mM): NaCl (195), CaCl2 (18), KCl (5.4), tris-maleate buffer (pH 7.5; 10), glucose (11)] for use with the crayfish was perfused at room temperature and at a constant flow rate. A glass micro-electrode filled with a 3M-KCl solution was inserted in a central part of the muscle fiber to intracellularly record changes in the potential of the muscular cell membrane.
The blocking effect of each test compound against glutamic acid was evaluated in terms of the suppression rate to depolarization which was induced by bath-applying L-glutamic acid (10^-4 M) in a 5-minute pretreatment with a solution of the test compound (2×10^-4 M).

The test system of series [2] is anemic decerebrate rigidity (Wistar male rats). Briefly: Effects on anemic decerebrate rigidity (EMG of M. triceps brachii). In kind it is in vivo. To be noted: Rattus norvegicus, iv, 10 min; 3 mg/kg through the femoral vein; 10 minutes after administration; read-out: Suppression rate (rigidity, EMG pulse area).
Procedure: An anemic decerebrate rigidity sample was prepared principally in accordance with the procedure of Fukuda et al. [Japan. […] Wistar male rats (body weight: 270 to 350 g) were held on their backs and incised at their cervices under etherization. After the trachea and common carotid arteries were exposed, the trachea was cannulated and the bilateral common carotid arteries and esophagus were then double-ligated and cut. Thereafter, its occipital bone was exposed through which a circular hole was bored to double-ligate the centrally extending basilar artery. As each rat started coming out of anesthetization, its front limbs became rigid. Measurement was conducted by recording electromyographic (EMG) response from the muscle of the forelimb (M. triceps brachii) of the rat in the rigid state. The EMG pulses were converted to accumulated values every 10 seconds and recorded as a histogram on a recorder.
The effect of each test compound on the rigidity was evaluated in terms of the suppression rate. This rate was calculated first by determining the area of a decreased EMG pulse part on the histogram upon passage of 10 minutes after administration of a physiological saline solution of each test compound (3 mg/kg) through the femoral vein and then in accordance with the following equation.
A: EMG pulse area when no test compound was administered (control).
Series [3] can be described thus: Acute toxicity, up-and-down method. The following applies: mouse, in vivo; iv (caudal vein), ddN male mice. Here is the method:
Using ddN male mice, the acute toxicity level of each test compound was determined in accordance with an up-and-down method. Some of the test compounds used were dissolved in physiological saline and administered through the caudal vein.

Structures are written as SMILES.

The text below walks through data of US5250546A, “Amino-alcohol derivatives and processes for their preparation” (Nippon Chemiphar Co., Ltd., priority 1984, dated 1993).

As to `CCCC[C@H](NCCCN1CCCCC1)[C@H](O)c1ccccc1.Cl.Cl` (racemic) [Compound 3, (1RS,2SR)-1-phenyl-2-(3-piperidinopropylamino)hexan-1-ol dihydrochloride], the inhibition at 200 µM in series [1] stood at 99%. Moreover, the inhibition in vivo at 3 mg/kg in series [2] came to 17.5%. In series [3], this molecule returned an LD50 of 19.2 mg/kg.
For `CCCCC[C@H](NCCCN1CCCCC1)[C@H](O)c1ccccc1.Cl.Cl` (racemic) [Compound 5, (1RS,2SR)-1-phenyl-2-(3-piperidinopropylamino)heptan-1-ol dihydrochloride], in that order: 100%, 18.5% and 22.1 mg/kg.
As to `CC(C)C[C@H](NCCCN1CCCCC1)[C@H](O)c1ccccc1.Cl.Cl` (racemic) [Compound 15, (1RS,2SR)-4-methyl-1-phenyl-2-(3-piperidinopropylamino)pentan-1-ol dihydrochloride], the inhibition at 200 µM in series [1] worked out at 100%. This molecule came in with an LD50 in series [3] of 23.6 mg/kg.
As for `CC(C)C[C@@H](NCCCN1CCCCC1)[C@H](O)c1ccccc1.Cl.Cl` (racemic) [Compound 16, (1RS,2RS)-4-methyl-1-phenyl-2-(3-piperidinopropylamino)pentan-1-ol dihydrochloride], in series [1], the inhibition at 200 µM came out at 95%. In series [3], the LD50 was 28.8 mg/kg.
`CC(C)CC[C@H](NCCCN1CCCCC1)[C@H](O)c1ccccc1.Cl.Cl` (racemic) [Compound 21, (1RS,2SR)-5-methyl-1-phenyl-2-(3-piperidinopropylamino)hexan-1-ol dihydrochloride]: in series [1], the inhibition at 200 µM was 100%. For the same molecule, in series [2], the inhibition in vivo at 3 mg/kg was 65.9%. In series [3], this molecule registered an LD50 of 13.6 mg/kg.
On the same counts, the results for `CC(C)CC[C@@H](NCCCN1CCCCC1)[C@H](O)c1ccccc1.Cl.Cl` (racemic) [Compound 22, (1RS,2RS)-5-methyl-1-phenyl-2-(3-piperidinopropylamino)hexan-1-ol dihydrochloride] are 100%, 42.3% and 19 mg/kg.
On the same counts, the results for `CC(C)CC[C@H](NCCCN1CCCC1)[C@H](O)c1ccccc1.Cl.Cl` (racemic) [Compound 35, (1RS,2SR)-5-methyl-1-phenyl-2-(3-pyrrolidinopropylamino)hexan-1-ol dihydrochloride] are 100%, 21.6% and 26.7 mg/kg.
For `CC(C)CC[C@H](NCCN1CCCCC1)[C@H](O)c1ccccc1.Cl.Cl` (racemic) [Compound 41, (1RS,2SR)-5-methyl-1-phenyl-2-(2-piperidinoethylamino)hexan-1-ol dihydrochloride], the inhibition at 200 µM in series [1] is 94%. The inhibition in vivo at 3 mg/kg in series [2] was found to be 23.5%. This molecule also had an LD50 in series [3] of 29.5 mg/kg.
For `CC(C)CC[C@H](NCCN1CCCC1)[C@H](O)c1ccccc1.Cl.Cl` (racemic) [Compound 43, (1RS,2SR)-5-methyl-1-phenyl-2-(2-pyrrolidinoethylamino)hexan-1-ol dihydrochloride], in that order: 95%, 16.1% and 31.9 mg/kg.
On the same counts, the results for `CC(C)CC[C@H](NCCCN1CCCCCC1)[C@H](O)c1ccccc1.Cl.Cl` (racemic) [Compound 45, (1RS,2SR)-5-methyl-2-[3-(perhydroazepin-1-yl)propylamino]-1-phenylhexan-1-ol dihydrochloride] are 100%, 90.5% and 12.8 mg/kg.
Regarding `CC(C)C[C@H](NCCCN1CCCCC1)[C@H](O)c1ccccc1.Cl.Cl` [Compound 17, (1R,2S)-4-methyl-1-phenyl-2-(3-piperidinopropylamino)pentan-1-ol dihydrochloride], the inhibition at 200 µM in series [1] was determined as 100%. The molecule also registered an LD50 in series [3] of 15.4 mg/kg.
Regarding `CC(C)C[C@H](NCCCN1CCCCC1)[C@@H](O)c1ccccc1.Cl.Cl` [Compound 19, (1S,2S)-4-methyl-1-phenyl-2-(3-piperidinopropylamino)pentan-1-ol dihydrochloride], the inhibition at 200 µM in series [1] was 100%. The molecule also showed an LD50 in series [3] of 28.4 mg/kg.
